Experimental findings from patent publication US20180051132A1, “ELASTOMER COUPLED WITH BIOACTIVE FATTY ACID” (University of Pittsburgh - Of the Commonwealth System of …, priority 2016, published 2018) are described below.

Each structure is given as a SMILES string.

The subject of this assay is sheep vascular endothelial cell (SVEC). The experiment in a line: SVEC proliferation/cytotoxicity, CellTiterBlue assay. Format: cell-based. To be noted: without growth factors. Here is the method: The cell media used was the EGM-2 Bullet Kit (CC-3162) from Lonza. It consists of 500 mL of basal media, antibiotics GA-1000 (Gentamicin, Amphotecerin-B), FBS (Fetal Bovine Serum) 10 mL, and a kit of growth factors (VEGF, hFGF-B, R3-IGF-1, Ascorbic Acid, Heparin). • In vitro viability assay:Live/dead assay • In vitro cytotoxicity(biocompatibility)/proliferation assay: CellTiterBlue® assay • This in vitro test was to find the optimal linoleic acid content in the material. Cells were cultured in different concentration of LA. […]
The fluorescence of live cells were measured at three time points:1, 3, 5 days. […] Fluorescence was recorded triple times for each well at 560 nm/590 nm excitation/emission.
In general terms: The colour change of resazurin is a common sign of viable cells or microbes.

Consider `CCCCC/C=C\C/C=C\CCCCCCCC(=O)O` [LA, linoleic acid], for which the SVEC proliferation entry was “higher proliferation than the cells in the positive control medium” (36 nM LA) and “higher proliferation than the cells in the positive control medium” (360 nM LA).
